US20260356957A1, “METHODS FOR TREATMENT OF NON-SMALL CELL LUNG CANCER (NSCLC)” (Janssen Biotech, Inc., priority 2023, published 2026)
Marks after values point to notes of the source that are not given here.

Assay: MARIPOSA Phase 3, adverse events
Format: in vivo, human
From the text: • 1. […] Incidence and Severity of Adverse Events (AEs) [Time Frame: Up to approximately 60 months]. Incidence and severity of treatment emergent adverse events (TEAEs) will be reported. Any adverse event occurring at or after the initial administration of study treatment through the day of last dose plus 30 days, or until the start of subsequent anticancer therapy (if earlier), is considered to be treatment emergent. • 8. Number of Participants with Clinical Laboratory Abnormalities [Time Frame: Up to approximately 60 months]. Number of participants with clinical laboratory abnormalities (serum chemistry, hematology, blood coagulation, and urine samples) will be reported. • 9. Number of Participants with Vital Signs Abnormalities [Time Frame: Up to approximately 60 months]. Number of participants with vital signs abnormalities (temperature, heart rate, respiratory rate, oxygen saturation, blood pressure) will be reported. • 10. Number of Participants with Physical Examination Abnormalities [Time Frame: Up to approximately 60 months]. Number of participants with physical examination abnormalities will be reported. • 11. […] The NSCLC-SAQ contains 7 items that assess cough, pain, dyspnea, fatigue, and poor appetite over a 7-day recall period. Each multi-item scale and individual item will be summarized using count and percent by visit. • 15. […] EORTC-QLQ-C30 is a core 30-item questionnaire for evaluating the health-related quality of life (HRQOL) of participants participating in cancer clinical studies. • 16.

[1] = AE of interest, grouped preferred terms
[2] = Grade 5 AE, deemed treatment-related
[3] = TEAE leading to discontinuations of any study agent
[4] = TEAE leading to dose reductions of any study agent

C=CC(=O)Nc1cc(Nc2nccc(-c3cn(C)c4ccccc34)n2)c(OC)cc1N(C)CCN(C)C [Osimertinib]
Venous thromboembolism, No. of days to first onset, median (range) (AE of interest): 194 (10-675) days
Any venous thromboembolism event, No. of patients (%) [1]: 39 (9) no. (%)
Rash, Duration of event, median no. of days (range) [1]: 51 (1-625) days
Rash, No. of days to first onset, median (range) [1]: 29 (1-799) days
Rash, No. of events, any grade [1]: 238
Rash, No. of patients (%) [1]: 210 (49) no. (%)
Anemia (AE, All grades): 91 (21) no. (%)
Asthenia (AE, All grades): 46 (11) no. (%)
COVID-19 (AE, All grades): 103 (24) no. (%)
Constipation (AE, All grades): 55 (13) no. (%)
Cough (AE, All grades): 88 (21) no. (%)
Decreased appetite (AE, All grades): 76 (18) no. (%)
Dermatitis acneiform (AE, All grades): 55 (13) no. (%)
Diarrhea (AE, All grades): 190 (44) no. (%)
Dry skin (AE, All grades): 60 (14) no. (%)
Dyspnea (AE, All grades): 68 (16) no. (%)
Fatigue (AE, All grades): 42 (10) no. (%)
Hypoalbuminemia (AE, All grades): 26 (6) no. (%)
Hypocalcemia (AE, All grades): 35 (8) no. (%)
Increased alanine aminotransferase (AE, All grades): 57 (13) no. (%)
Increased aspartate aminotransferase (AE, All grades): 58 (14) no. (%)
Infusion-related reaction (AE, All grades): 0 no. (%)
Leukopenia (AE, All grades): 66 (15) no. (%)
Muscle spasms (AE, All grades): 32 (7) no. (%)
Nausea (AE, All grades): 58 (14) no. (%)
Pain in extremity (AE, All grades): 22 (5) no. (%)
Paronychia (AE, All grades): 121 (28) no. (%)
Peripheral edema (AE, All grades): 24 (6) no. (%)
Pruritus (AE, All grades): 73 (17) no. (%)
Pulmonary embolism (AE, All grades): 20 (5) no. (%)
Rash (AE, All grades): 131 (31) no. (%)
Stomatitis (AE, All grades): 90 (21) no. (%)
Thrombocytopenia (AE, All grades): 84 (20) no. (%)
Anemia (AE, Grade ≥3): 7 (2) no. (%)
Asthenia (AE, Grade ≥3): 4 (1) no. (%)
COVID-19 (AE, Grade ≥3): 9 (2) no. (%)
Constipation (AE, Grade ≥3): 0 no. (%)
Cough (AE, Grade ≥3): 0 no. (%)
Decreased appetite (AE, Grade ≥3): 6 (1) no. (%)
Dermatitis acneiform (AE, Grade ≥3): 0 no. (%)
Diarrhea (AE, Grade ≥3): 3 (1) no. (%)
Dry skin (AE, Grade ≥3): 1 (0.2) no. (%)
Dyspnea (AE, Grade ≥3): 17 (4) no. (%)
Fatigue (AE, Grade ≥3): 4 (1) no. (%)
Hypoalbuminemia (AE, Grade ≥3): 0 no. (%)
Hypocalcemia (AE, Grade ≥3): 0 no. (%)
Increased alanine aminotransferase (AE, Grade ≥3): 8 (2) no. (%)
Increased aspartate aminotransferase (AE, Grade ≥3): 5 (1) no. (%)
Infusion-related reaction (AE, Grade ≥3): 0 no. (%)
Leukopenia (AE, Grade ≥3): 0 no. (%)
Muscle spasms (AE, Grade ≥3): 0 no. (%)
Nausea (AE, Grade ≥3): 1 (0.2) no. (%)
Pain in extremity (AE, Grade ≥3): 0 no. (%)
Paronychia (AE, Grade ≥3): 2 (0.5) no. (%)
Peripheral edema (AE, Grade ≥3): 0 no. (%)
Pruritus (AE, Grade ≥3): 1 (0.2) no. (%)
Pulmonary embolism (AE, Grade ≥3): 10 (2) no. (%)
Rash (AE, Grade ≥3): 3 (1) no. (%)
Stomatitis (AE, Grade ≥3): 1 (0.2) no. (%)
Thrombocytopenia (AE, Grade ≥3): 5 (1) no. (%)
Acinetobacter sepsis (Grade 5 AE): 0 no. (%)
Acute respiratory distress syndrome (Grade 5 AE): 0 no. (%)
Arteriosclerosis coronary artery (Grade 5 AE): 0 no. (%)
COVID-19 (Grade 5 AE): 3 (1) no. (%)
COVID-19 pneumonia (Grade 5 AE): 0 no. (%)
Cardiac failure (Grade 5 AE): 1 (0.2) no. (%)
Cardiopulmonary failure (Grade 5 AE): 0 no. (%)
Cerebral hemorrhage (Grade 5 AE): 1 (0.2) no. (%)
Cerebral infarction (Grade 5 AE): 0 no. (%)
Cerebrovascular accident (Grade 5 AE): 1 (0.2) no. (%)
Circulatory collapse (Grade 5 AE): 0 no. (%)
Death (Grade 5 AE): 2 (0.5) no. (%)
Dyspnea (Grade 5 AE): 3 (1) no. (%)
Hemoptysis (Grade 5 AE): 1 (0.2) no. (%)
Ischemic cerebral infarction (Grade 5 AE): 0 no. (%)
Ketoacidosis (Grade 5 AE): 1 (0.2) no. (%)
Lower respiratory tract infection (Grade 5 AE): 1 (0.2) no. (%)
Metabolic acidosis (Grade 5 AE): 1 (0.2) no. (%)
Myocardial infarction (Grade 5 AE): 0 no. (%)
Myocardial rupture (Grade 5 AE): 0 no. (%)
Pericardial effusion (Grade 5 AE): 1 (0.2) no. (%)
Pleural effusion (Grade 5 AE): 1 (0.2) no. (%)
Pneumonia (Grade 5 AE): 4 (1) no. (%)
Pneumonia aspiration (Grade 5 AE): 1 (0.2) no. (%)
Pulmonary embolism (Grade 5 AE): 2 (0.5) no. (%)
Respiratory failure (Grade 5 AE): 2 (0.5) no. (%)
Respiratory tract infection (Grade 5 AE): 1 (0.2) no. (%)
Sepsis (Grade 5 AE): 1 (0.2) no. (%)
Septic shock (Grade 5 AE): 1 (0.2) no. (%)
Sudden death (Grade 5 AE): 1 (0.2) no. (%)
Urosepsis (Grade 5 AE): 0 no. (%)
Coronary artery disease [2]: 0 no. (%)
Interstitial lung disease [2]: 2 (0.5)§ no. (%)
Pneumonitis [2]: 0 no. (%)
Asthenia [3]: 1 (0.2) no. (%)
Dermatitis acneiform [3]: 0 no. (%)
Hypoalbuminemia [3]: 0 no. (%)
Infusion related reaction [3]: 0 no. (%)
Interstitial lung disease [3]: 4 (1) no. (%)
Paronychia [3]: 0 no. (%)
Peripheral edema [3]: 0 no. (%)
Pneumonia [3]: 3 (1) no. (%)
Pneumonitis [3]: 7 (2) no. (%)
Pulmonary embolism [3]: 2 (0.5) no. (%)
Rash [3]: 0 no. (%)
Dermatitis acneiform [4]: 0 no. (%)
Folliculitis [4]: 0 no. (%)
Hypoalbuminemia [4]: 0 no. (%)
Increased alanine aminotransferase [4]: 0 no. (%)
Increased aspartate aminotransferase [4]: 0 no. (%)
Mucosal inflammation [4]: 0 no. (%)
Neuropathy peripheral [4]: 0 no. (%)
Paresthesia [4]: 0 no. (%)
Paronychia [4]: 1 (0.2) no. (%)
Peripheral edema [4]: 0 no. (%)
Peripheral sensory neuropathy [4]: 0 no. (%)
Rash [4]: 2 (0.5) no. (%)
Rash maculo-papular [4]: 0 no. (%)
Rash pustular [4]: 0 no. (%)
